Measured values as given in patent publication US20240141291A1, “FUNCTIONAL BRAIN REGION-SPECIFIC NEURAL SPHEROIDS AND METHODS OF USE” (THE UNITED STATES OF AMERICA, AS REPRESENTED BY THE …, priority 2021, published 2024).
Several values for one entry are separate records, joined by “and”; a condition that tells them apart may be missing. Identical values can stand only once. Entries after “also recorded” stand apart in the source; their conditions may differ.

How the values were obtained:
Format in all cases: cell-based, human
VTA-like spheroids [1] = assay: FLIPR calcium activity profiling, compound addition (Examples 1-2); conditions: FLIPR recordings 1-, 30-, 70-min after compound (t1, t30, t70)
Experimental: (§1) To examine neuronal activity changes as a response to compound treatment, calcium activity was assessed using a Fluorescent Imaging Plate Reader (FLIPR) Penta (Molecular Devices). FLIPR Calcium 6 Assay kits were purchased from Molecular Devices (PN: R8190). On day of activity profiling, 96-well or 384-well ULA round bottom (black sides, clear bottom) plates containing spheroids were removed from incubator. Fresh FLIPR Calcium 6 dye was prepared by diluting each vial in 10 ml of freshly prepared, phenol-free complete spheroid maturation media and vortexed for 2 minutes. Half of the media was removed from each well (45 μl from 384-well plate wells, 100 ul from 96-well plate wells) and replaced with equal amounts freshly prepared FLIPR Calcium 6 dye, followed by a 2-hour incubation in the dark in a 37 C, 5% CO2 incubator. After 2-hours, plates were removed and kept at room temperature for 10 minutes, then imaged and calcium activity read using the Molecular Devices FLIPR Penta High-Throughput Cellular Screening System. The FLIPR incubator stage was pre-warmed to 37° C. approximately 30 minutes prior to imaging. Standard filter sets were used for Cal6 imaging (excitation 470-495 and emission 515-575 nm). FLIPR recordings were obtained with the camera in normal mode, and settings included: gain was set to 2.5, exposure time to 0.03 seconds, and excitation intensity to 50%. Fluorescent image reads were taken every 0.6 seconds for a total of 1000 reads over a total run time of 10 minutes. Four recordings total were captured: baseline activity, 1-min after compound treatment, 30- and 70-min after compound treatment.
(§2) After baseline activity, cell plates were removed from the FLIPR and transferred to a 384-well pin tool instrument. Prior to compound addition, the pin tool was subjected to 4 wash cycles exposing the pins to water, methanol, and DMSO each time. Compounds, including either “QC compounds” (compounds with known mechanism of action, listed in results) or the mu opioid receptor selective-agonist DAMGO, were transferred from a compound source plate to the 384-well spheroid plate. Immediately after compound transfer, the cell plate was placed back in the FLIPR for the recording that was 1-min after compound transfer to begin. After this 10-min recording, another recording was captured 30-min after compounds were transferred. After the 30-min recording, the plate was again removed from the FLIPR and transferred to the pin tool instrument. During this phase of compound transfer, naloxone was transferred to wells that received DAMGO during the first compound transfer. Following this second compound transfer, the cell plate was placed back in the FLIPR and a final recording was obtained 30-min later, and 70-min after the initial compound transfer.
(§3) The FLIPR software ScreenWorks PeakPro 2.0 was used for the initial analysis of calcium activity using automated peak detection settings. With these settings, average peak statistics over each 10-min recording for each well were exported from PeakPro to Microsoft Excel. ScreenWorks Peak Pro 2.0 software was used to extract 17 activity features describing different aspects of calcium activity profiles. These included peak amplitude (PkA), peak amplitude standard deviation (PkASD), peak count (PkCt), peak rate (measured as peaks per minute, PpM), peak rate SD, peak spacing (PkSp), peak spacing SD (PkSpSD), peak spacing regularity, area under the curve (AUC), AUC SD, peak rise slope, peak rise slope SD, peak rise time (PkRt), peak ride time SD (PkRtSD), peak decay slope, peak decay slope SD, peak decay time (PkDt), and peak decay time SD (PkDtSD). To assess variability of these peak parameters, percent coefficients of variance (CV) were calculated by dividing the standard deviation/mean and multiplying by 100 for each designer spheroid type, and those with % CV's […] 20% were removed from future analysis. […]

PFC-like spheroids [2] = assay: as above; conditions: FLIPR recordings 1-, 30-, 70-min after compound (t1, t30, t70)
Experimental: as §1, §2, §3

A53T VTA-like spheroids = assay: Parkinson's Disease model, FLIPR calcium activity after compound treatment; conditions: 90-min after treatment; for reversal of A53T-induced deficits (peak count, peak width): Ropinirole 1, 3 and 10 μM
Experimental: (§4) Fluorescent Imaging plate Reader (FLIPR): The FLIPR Penta (Molecular Devices) was used to assess calcium fluorescence across the 384-well plate simultaneously and to observe changes after treatment with compounds. The evening before calcium activity was measured, plates were sealed with parafilm and centrifuged at 1485×g for 2-min to get spheroids to the bottom of the well in a centered position. On the day of recording, the plate used for recording was placed in the read plate position inside of the FLIPR following the 2-hour Cal6 incubation at 37° C. Standard filter sets were used for Cal6 imaging with excitation set at 470-495 and emission at 515-575 nm. Fluorescent image reads were taken every 0.6 seconds for all plates, with exposure time of 0.03 and 50% excitation intensity. Recordings from the initial seven plates consisted of 1000 reads and were 10-min recordings with 2.5 gain, while the final two plates consisted of 500 reads (5-min recordings) with a gain of 2. Baseline recordings were taken across all plates and, if applicable, more recordings were obtained 1-, 30-, 60-, and/or 90-min after compound treatment. In between recordings, plates were wrapped in foil and placed back in the incubator at 37° C.
(§5) 384 Pin Tool: A 384 well pin tool (Rexroth) was used to transfer compounds simultaneously to the spheroid plate. Prior to compound transfer, the pin tool went through four wash cycles where pins were rinsed with dimethyl sulfoxide (DMSO), followed by methanol, then deionized (DI) water, to ensure the pins were clean. Compound transfer via the 384 well pin tool occurred after the baseline recordings with the fluorescent imaging plate reader (FLIPR). Here, 60 nL of compound suspended in DMSO was transferred to 60 µL of media in each well, diluting the compounds by 1000-fold and giving a final DMSO concentration of 0.1%. Immediately after compound transfer, the spheroid plate was either placed back inside of the FLIPR for a recording 1-min after compound treatment or placed back in the incubator if post-treatment recording was >30-min after compound transfer.
Calcium Activity Analysis: Calcium oscillatory peak detection data from FLIPR recordings was obtained through ScreenWorks 5.1 (Molecular Devices). Initial peak detection analysis occurred within ScreenWorks 5.1 via the PeakPro 2.0 module. Here, all parameters were set to be the same for all wells per plate. The event polarity was always set to positive and search vector length always set to 11. The baseline, trigger level, which is automatically set to 10% above the baseline, and dynamic threshold, which is the threshold for peak detection were automatically identified by the PeakPro 2.0 module. Wells were manually checked to ensure these parameters were accurately identified prior to analysis. After analysis, data from 18 peak parameters (mean peak amplitude, peak amplitude standard deviation (SD), peak count, mean peak rate, peak rate SD, peak spacing, peaking spacing SD, mean number of EAD-like peaks per well, CTD @ 50% (peak width at 50% amplitude), CTD @ 90% (peak width at 90% amplitude), rise slope, rise slope SD, mean peak rise time, peak rise time SD, decay slope, decay slope SD, mean peak decay time, and peak decay time SD) was exported to a STATALL file that could be converted to a Microsoft Excel spreadsheet. There, percent coefficient of variance (% CV) was calculated within each plate to measure how variable each parameter exported was. […] All data was normalized to the average of DMSO-treated control wells within each plate. […] Bar plots with individual values are reported as mean±SEM.

PFC-like spheroids [3] = assay: FLIPR calcium activity with Cal6 dye, control compounds / DAMGO / AD compounds (Example 3); conditions: for effect on peak count and peak spacing: 10 μM DAMGO, recording 30-min later, then naloxone
Experimental: (§6) Viruses and dyes: To assess calcium activity, the calcium dye, Cal6 (Molecular Devices), and genetically encoded calcium indicator, GCaMP6f (Addgene, cat #100836-AAV9) were used. Cal6 was used according to manufacturer's instructions and 10 mL of maintenance media was added to each vial. Two hours before activity was recorded, half of the spheroid media was exchanged for media with Cal6. The plates were covered in foil and placed in the incubator at 37° C. during the 2-hour (hr) incubation period. Since all viruses used were adeno-associated viruses (AAV), they were added to the media on day 7 to allow for 2-weeks expression prior to recording or testing. All viruses were added to the media at 2e5 multiplicity of infection (MOI). GCaMP6f infection occurred via an adeno-associated virus serotype 9 (AAV9) expressed under the CAG promoter for expression in both neurons and astrocytes. Designer receptors exclusively activated by designer drugs (DREADDs) viruses were used to stimulate and inhibit neuronal activity within spheroids. Both viruses were retrograde AAVs expressed under the human Synapsin promoter for expression in neurons and fused with an mCherry fluorophore. The DREADDs viruses either inserted the designer receptor hM4D(Gi), an inhibitory G-protein coupled receptor, or hM3D(Gq), a stimulatory G-protein coupled receptor. Clozapine-N-oxide (CNO, Tocris cat #4936) was suspended in dimethyl sulfoxide (DMSO) and used as the designer drug to activate the DREADDs viruses. CNO was tested at 1 and 10 μM, with data reported from the 1 μM concentration.
as §4
DAMGO was reconstituted in water at a 1 mM concentration and diluted in media to 20 µM such that spheroids would be treated with a final concentration of 10 μM after the half media exchange. Two aspects of OUD were modeled, chronic treatment along with opioid withdrawal. For spheroids subjected to chronic DAMGO treatment, 20 μM DAMGO in maintenance media was added via half media exchange beginning on day 10, with treatments occurring every other day for 10 days, giving a total of five treatments.
as §5, with “0.1%.” for “0.1%. Immediately after compound transfer, the spheroid plate was either placed back inside of the FLIPR for a recording 1-min after compound treatment or placed back in the incubator if post-treatment recording was >30-min after compound transfer.”

VTA-like spheroids [4] = assay: FLIPR calcium activity with Cal6 dye, control compounds / DAMGO (Example 3); conditions: VTA-like spheroids, chronic DAMGO pre-treatment
Experimental: as §6, §4
DAMGO was reconstituted in water at a 1 mM concentration and diluted in media to 20 µM such that spheroids would be treated with a final concentration of 10 μM after the half media exchange. Two aspects of OUD were modeled, chronic treatment along with opioid withdrawal. […]
384 Pin Tool: A 384 well pin tool (Rexroth) was used to transfer compounds simultaneously to the spheroid plate. […] Compound transfer via the 384 well pin tool occurred after the baseline recordings with the fluorescent imaging plate reader (FLIPR). […]

In the case of `Nc1ccncc1` [4-AP, 4-aminopyradine], the “effect on calcium activity peak parameters compared to DMSO controls” value (VTA-like spheroids [1]) is reported as “did not have any impact on PkCt, PkA, PpM, or PkSp at t1, t30, or t70; also recorded: significantly reduced PkDt at t1; also recorded: trend toward statistical significance for increasing the decay slope” and the “effect on calcium activity peak parameters compared to DMSO controls” value (PFC-like spheroids [2]) is reported as “significantly increased PkCt 1-min after exposure; also recorded: For the t30 recording, there was a significant increase in peaks per minute (PpM) and the decay slope; also recorded: Significant increases in PkCt and PpM as well as a reduction in PkSp resulted from 4-AP 70-min after exposure”.

For `NC(CCCP(=O)(O)O)C(=O)O` (stereo not shown) [AP5], the “effect on calcium activity peak parameters compared to DMSO controls” value (VTA-like spheroids [1]) was “did not impact calcium activity” and the “effect on calcium activity peak parameters compared to DMSO controls” value (PFC-like spheroids [2]) was “did not impact calcium activity”.

For `NC12CC3CC(CC(C3)C1)C2` [Amantadine], the “reversal of A53T-induced deficits (peak count, peak width)” value (“reversal of A53T-induced deficits” below) (A53T VTA-like spheroids) was “only Ropinirole was found to reverse this 90-min after treatment”.

For `CN1[C@@H]2CC[C@H]1C[C@@H](OC(c1ccccc1)c1ccccc1)C2` [Benztropine], the “reversal of A53T-induced deficits” value (A53T VTA-like spheroids) was “only Ropinirole was found to reverse this 90-min after treatment”.

`N#Cc1cc2[nH]c(=O)c(=O)[nH]c2cc1[N+](=O)[O-]` [CNQX] was tested, and the “functional response (calcium activity peak parameters) to control compound” value (PFC-like spheroids [3]; PFC-like spheroids, recordings 1-, 30-, 60-min after treatment) was “inhibited all activity in PFC-like spheroids for all three recordings (1-, 30-, and 60-min); also recorded: total inhibition that lasted throughout the 1-hr period”, the “effect on calcium activity peak parameters compared to DMSO controls” value (VTA-like spheroids [1]) was “total inhibition of calcium activity during the t1 recording and 30-min after CNQX treatment, PkCt and PpM were significantly increased while PkA, PkSp, and PkDt were all still reduced and had no impact on calcium activity in VTA-like spheroids during the t70 recording” and the “effect on calcium activity peak parameters compared to DMSO controls” value (PFC-like spheroids [2]) was “total inhibition of calcium activity that lasted throughout the entire recording period”.

With `N[C@@H](Cc1ccc(O)c(O)c1)C(=O)O` [L-Dopa] the “reversal of A53T-induced deficits” value (A53T VTA-like spheroids) was “only Ropinirole was found to reverse this 90-min after treatment”.

`C#CCN[C@@H]1CCc2ccccc21` [Rasagiline] was tested, and the “reversal of A53T-induced deficits” value (A53T VTA-like spheroids) was “only Ropinirole was found to reverse this 90-min after treatment”.

With `CCN(C)C(=O)Oc1cccc([C@H](C)N(C)C)c1` [Rivastigmine] the “effect on peak count and spacing in Wt PFC-like spheroids” value (PFC-like spheroids [3]; Wt PFC-like spheroids, 90 min after treatment) was “differences were observed in all groups except Rivastigmine”.

With `CCCN(CCC)CCc1cccc2c1CC(=O)N2` [Ropinirole] the “effect on subpeak count” value (A53T VTA-like spheroids) was 3 and 10 μM, but not 1 μM, Ropinirole significantly reduced subpeak count and the “reversal of A53T-induced deficits” value (A53T VTA-like spheroids) was “significantly reduce peak count and increase peak width to the level that they were no longer significantly different from Wt DMSO-treated control spheroids; also recorded: restored deficits across all 3 peak measures”.

For `Cc1ccc(C(=O)c2cc(O)c(O)c([N+](=O)[O-])c2)cc1` [Tolcapone], the “reversal of A53T-induced deficits” value (A53T VTA-like spheroids) was “only Ropinirole was found to reverse this 90-min after treatment”.

In the case of `OC(CCN1CCCCC1)(c1ccccc1)C1CCCCC1` (stereo not shown) [Trihexyphenidyl], the “reversal of A53T-induced deficits” value (A53T VTA-like spheroids) is reported as “only Ropinirole was found to reverse this 90-min after treatment”.

With `C=CCN1CC[C@]23c4c5ccc(O)c4O[C@H]2C(=O)CC[C@@]3(O)[C@H]1C5` [naloxone] the “effect on peak count and peak spacing” value (PFC-like spheroids [3]; PFC-like chronic DAMGO-treated spheroids) was “those treated with naloxone no longer showed significant differences in these peak parameters compared to DMSO-treated controls; also recorded: reverses deficits induced by chronic opioid treatment in PFC-like but not VTA-like spheroids”, the “effect on peak count and peak spacing” value (PFC-like spheroids [3]; PFC-like control spheroids) was “reversed deficits in peak count and spacing in acute DAMGO-treated control spheroids” and the “reversal of deficits induced by chronic opioid treatment” value (VTA-like spheroids [4]) was “reverses deficits induced by chronic opioid treatment in PFC-like but not VTA-like spheroids”.
